Data on 19 compounds can be found in patent US8742110B2, “Spiroxazolidinone compounds” (Merck Sharp & Dohme Corp., priority 2010, dated 2014).

Where a name gives a salt, the structure may show the parent alone.

Chain of SSTR5 (P35346 whole entry): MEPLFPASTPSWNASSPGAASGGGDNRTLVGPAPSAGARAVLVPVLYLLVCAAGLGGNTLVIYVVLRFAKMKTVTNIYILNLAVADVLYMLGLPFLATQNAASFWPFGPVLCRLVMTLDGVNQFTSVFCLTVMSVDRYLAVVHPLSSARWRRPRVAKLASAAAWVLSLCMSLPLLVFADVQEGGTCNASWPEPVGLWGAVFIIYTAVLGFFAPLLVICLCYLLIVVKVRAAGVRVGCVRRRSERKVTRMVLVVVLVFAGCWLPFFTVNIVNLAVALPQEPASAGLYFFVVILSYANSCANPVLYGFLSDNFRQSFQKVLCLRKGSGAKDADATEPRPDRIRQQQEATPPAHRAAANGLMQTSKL

The target of this assay is SSTR5 (Homo sapiens (Human), UniProt P35346). The assay can be described thus: SSTR5 binding assay. The conditions noted are these: CHO-K1 membranes expressing cloned human SSTR5. Here is the method:
The receptor-ligand binding assays of all 5 subtype of SSTRs were performed with membranes isolated from Chinese hamster ovary (CHO)-K1 cells stably expressing the cloned human somatostatin receptors in 96-well format as previous reported.
The stable cell lines for SSTR1-SSTR5 were developed by stably transfecting with DNA for all five SSTRs using Lipofectamine. […] The assay buffer consisted of 50 mM TrisHCl (pH 7.8) with 1 mM EGTA, […] MgCl2, leupeptin (10 μg/mL), pepstatin (10 μg/mL), bacitracin (200 μg/mL), and aprotinin (0.5 μg/mL). CHO-K1 cell membranes, radiolabeled somatostatin, and unlabeled test compounds were resuspended or diluted in this assay buffer. Unlabeled test compounds were examined over a range of concentrations from 0.01 nM to 10,000 nM.
Compounds exemplified were tested in the SSTR5 binding assay.
In the case of `CC(C)(C)n1cc(CN2CCC3(CC2)CN(c2ccc(-c4nn[nH]n4)cc2)C(=O)O3)c(-c2cc(F)c(Cl)cc2F)n1` [Example 1-29, 8-{[1-tert-Butyl-3-(4-chloro-2,5-difluorophenyl)-1H-pyrazol-4-yl]methyl}-3-[4-(2H-tetrazol-5-yl)phenyl]-1-oxa-3,8-diazaspiro[4.5]decan-2-one, TFA salt], the IC50 (commonly the point on the concentration scale where inhibition reaches its midpoint) came out at 0.582 nM. This counts as sub-nanomolar.

Compound `CC(C)(C)n1cc(CN2CCC3(CC2)CN(c2ccc(C(=O)O)cc2)C(=O)O3)c(-c2ccc(F)cc2F)n1` [Example 1-30, 4-(8-{[1-tert-Butyl-3-(2,4-difluorophenyl)-1H-pyrazol-4-yl]methyl}-2-oxo-1-oxa-3,8-diazaspiro[4.5]dec-3-yl)benzoic acid, TFA salt] registered an IC50 of 1.95 nM. This IC50 lies about 3.4-fold higher than the previous one. Regarding `CC(C)(C)n1cc(CN2CCC3(CC2)CN(c2ccc(C(=O)O)cc2)C(=O)O3)c(-c2cc(F)c(Cl)cc2F)n1` [Example 1-31, 4-(8-{[1-tert-Butyl-3-(4-chloro-2,5-difluorophenyl)-1H-pyrazol-4-yl]methyl}-2-oxo-1-oxa-3,8-diazaspiro[4.5]dec-3-yl)benzoic acid, TFA salt], the IC50 worked out at 2.09 nM. Take `COc1ccc(-c2nn(C(C)(C)C)cc2CN2CCC3(CC2)CN(c2ccc(C(=O)O)cc2)C(=O)O3)c(F)c1` [Example 1-32, 4-(8-{[1-tert-Butyl-3-(2-fluoro-4-methoxyphenyl)-1H-pyrazol-4-yl]methyl}-2-oxo-1-oxa-3,8-diazaspiro[4.5]dec-3-yl)benzoic acid, TFA salt]: the IC50 was determined as 2.05 nM.

`O=C(O)c1ccc(N2CC3(CCN(Cc4cn(C5CCCCC5)nc4-c4cc(F)c(F)cc4F)CC3)OC2=O)cc1` [Example 1-33, 4-(8-{[1-Cyclohexyl-3-(2,4,5-trifluorophenyl)-1H-pyrazol-4-yl]methyl}-2-oxo-1-oxa-3,8-diazaspiro[4.5]dec-3-yl)benzoic acid, TFA salt] gave a concentration for half-maximal inhibition (IC50) of 1.29 nM. Under `O=C(O)c1ccc(N2CC3(CCN(Cc4cn(-c5ccccc5)nc4-c4ccc(F)c(Cl)c4)CC3)OC2=O)cc1` [Example 1-34, 4-(8-{[3-(3-Chloro-4-fluorophenyl)-1-phenyl-1H-pyrazol-4-yl]methyl}-2-oxo-1-oxa-3,8-diazaspiro[4.5]dec-3-yl)benzoic acid, TFA salt] stands 4.67 nM. `CC(C)(C)c1nn(-c2ccc(F)cc2)cc1CN1CCC2(CC1)CN(c1ccc(C(=O)O)cc1)C(=O)O2` [Example 1-35, 4-(8-{[3-tert-Butyl-1-(4-fluorophenyl)-1H-pyrazol-4-yl]methyl}-2-oxo-1-oxa-3,8-diazaspiro[4.5]dec-3-yl)benzoic acid, TFA salt] gave an IC50 of 36.2 nM. Against the preceding compound, the IC50 is about 7.8-fold higher. Compound `CCOc1nn(C(C)(C)C)cc1CN1CCC2(CC1)CN(c1ccc(C(=O)O)cc1)C(=O)O2` [Example 1-36, 4-{8-[(1-tert-Butyl-3-ethoxy-1H-pyrazol-4-yl)methyl]-2-oxo-1-oxa-3,8-diazaspiro[4.5]dec-3-yl}benzoic acid, TFA salt] had an IC50 of 509 nM. Under `Cc1cc(C(=O)O)ccc1N1CC2(CCN(Cc3cn(C(C)(C)C)nc3-c3ccc(F)c(F)c3F)CC2)OC1=O` [Example 1-37, 4-(8-{[1-tert-Butyl-3-(2,3,4-trifluorophenyl)-1H-pyrazol-4-yl]methyl}-2-oxo-1-oxa-3,8-diazaspiro[4.5]dec-3-yl)-3-methylbenzoic acid, TFA salt] stands 1.59 nM; under `CC(C)(C)Cn1cc(CN2CCC3(CC2)CN(c2ccc(C(=O)O)cc2)C(=O)O3)c(-c2ccc(F)c(Cl)c2)n1` [Example 1-38, 4-(8-{[3-(3-Chloro-4-fluorophenyl)-1-(2,2-dimethylpropyl)-1H-pyrazol-4-yl]methyl}-2-oxo-1-oxa-3,8-diazaspiro[4.5]dec-3-yl)benzoic acid, TFA salt], 5.29 nM. Turning to `O=C(O)c1ccc(N2CC3(CCN(Cc4c(-c5cc(F)c(F)cc5F)nn(-c5ccccc5)c4Cl)CC3)OC2=O)cc1` [Example 1-39, 4-(8-{[5-Chloro-1-phenyl-3-(2,4,5-trifluorophenyl)-1H-pyrazol-4-yl]methyl}-2-oxo-1-oxa-3,8-diazaspiro[4.5]dec-3-yl)benzoic acid, TFA salt], the 50% inhibitory concentration (IC50) amounted to 44.6 nM. Under `CCCCn1cc(CN2CCC3(CC2)CN(c2ccc(C(=O)O)cc2)C(=O)O3)c(Cc2cc(F)c(F)cc2F)n1` [Example 1-40, 4-(8-{[1-Butyl-3-(2,4,5-trifluorobenzyl)-1H-pyrazol-4-yl]methyl}-2-oxo-1-oxa-3,8-diazaspiro[4.5]dec-3-yl)benzoic acid, TFA salt] stands 8.34 nM.

On to `O=C(O)c1ccc(N2CC3(CCN(Cc4cn(CC(F)(F)F)nc4-c4ccc(F)c(F)c4F)CC3)OC2=O)cc1` [Example 1-41, 4-(2-Oxo-8-{[1-(2,2,2-trifluoroethyl)-3-(2,3,4-trifluorophenyl)-1H-pyrazol-4-yl]methyl}-1-oxa-3,8-diazaspiro[4.5]dec-3-yl)benzoic acid, TFA salt], for which the IC50 came out at 10.4 nM. Regarding `CC(C)(C)n1cc(CN2CCC3(CC2)CN(c2ccc(C(=O)O)c(F)c2)C(=O)O3)c(-c2ccc(F)c(F)c2F)n1` [Example 1-42, 4-(8-{[1-tert-Butyl-3-(2,3,4-trifluorophenyl)-1H-pyrazol-4-yl]methyl}-2-oxo-1-oxa-3,8-diazaspiro[4.5]dec-3-yl)-2-fluorobenzoic acid, TFA salt], the IC50 is 4.68 nM. Against the preceding compound, the IC50 is about 2.2-fold lower. In the case of `CC(C)(C)n1cc(CN2CCC3(CC2)CN(c2ccc(C(=O)O)cn2)C(=O)O3)c(-c2ccc(F)c(F)c2F)n1` [Example 1-43, 6-(8-{[1-tert-Butyl-3-(2,3,4-trifluorophenyl)-1H-pyrazol-4-yl]methyl}-2-oxo-1-oxa-3,8-diazaspiro[4.5]dec-3-yl)pyridine-3-carboxylic acid, TFA salt], the IC50 worked out at 2.88 nM.

On to `CCCCn1nc(Cc2cc(F)c(F)cc2F)c(CN2CCC3(CC2)CN(c2ccc(C(=O)O)cc2)C(=O)O3)c1Cl` [Example 1-44, 4-(8-{[5-Chloro-1-butyl-3-(2,4,5-trifluorobenzyl)-1H-pyrazol-4-yl]methyl}-2-oxo-1-oxa-3,8-diazaspiro[4.5]dec-3-yl)benzoic acid, TFA salt], for which the IC50 came out at 14.3 nM.

Take `CC(C)n1nc(Cc2cc(F)c(F)cc2F)c(CN2CCC3(CC2)CN(c2ccc(C(=O)O)cc2)C(=O)O3)c1Cl` [Example 1-45, 4-(8-{[5-Chloro-1-(propan-2-yl)-3-(2,4,5-trifluorobenzyl)-1H-pyrazol-4-yl]methyl}-2-oxo-1-oxa-3,8-diazaspiro[4.5]dec-3-yl)benzoic acid, TFA salt]: the IC50 came to 23 nM. As for `CCCn1nc(Cc2cc(F)c(F)cc2F)c(CN2CCC3(CC2)CN(c2ccc(C(=O)O)cc2)C(=O)O3)c1Cl` [Example 1-46, 4-(8-{[5-Chloro-1-propyl-3-(2,4,5-trifluorobenzyl)-1H-pyrazol-4-yl]methyl}-2-oxo-1-oxa-3,8-diazaspiro[4.5]dec-3-yl)benzoic acid, TFA salt], the figure is 40.9 nM. As for `O=C(O)c1ccc(N2CC3(CCN(Cc4c(Cc5cc(F)c(F)cc5F)nn(-c5ccccc5)c4Cl)CC3)OC2=O)cc1` [Example 1-47, 4-(8-{[5-Chloro-1-phenyl-3-(2,4,5-trifluorobenzyl)-1H-pyrazol-4-yl]methyl}-2-oxo-1-oxa-3,8-diazaspiro[4.5]dec-3-yl)benzoic acid, TFA salt], the figure is 79 nM.
